Experimental data as given in patent US12100151B2, “Droplet imaging pipeline” (Xilis, Inc., priority 2022, dated 2024).
“Also recorded” adds a separate entry of the source.

Legend:
[1] = test system: sarcoma cancer MOS; experiment: CTG luminescent cell viability assay on sarcoma cancer MOS; format: cell-based; conditions: sarcoma MOS treated on Day 7 after establishment; FIG. 5F top panel
Procedure: To measure cell viability, we used the CTG luminescent cell viability assay. CellTiter-Glo 3-D reagent (Promega, catalog no. G9681) was added in a 1:1 ratio with the initial well volume ([…], of CTG reagent 96-well plates and 384-well plates, respectively). The plates were placed on a shaker for 30 min. We measured luminescence by using a plate reader for each well.
Cell viability was assessed using both metabolic and imaging parameters. For the metabolic assay, Day 0 brightfield images were used to normalize CTG measurements for each well. Total surface areas (tSA) outputted from the machine learning model were used for normalizing the plating variations. The measured CTG value of each well was then divided by these surface area ratios to determine the adjusted CTG values. These adjusted CTG values were used to generate drug response curves, e.g., viability curves for each drug condition.
(§1) The imaging-based MOS drug assay allowed further delineating MOS 3D structures from individual stromal cells by overcoming fundamental limits of bulk assays, e.g., cell number, well-to-well variation, heterogeneity, and signal-to-noise ratio.

[2] = test system: sarcoma cancer MOS; experiment: live/dead cell dye imaging assay on sarcoma cancer MOS; format: cell-based; conditions: sarcoma MOS treated on Day 7 after establishment; FIG. 5F bottom panel
Text: as §1

[3] = test system: CRC #6; experiment: imaging-based MOS drug assay (MOS size, live/dead CAM/EtH dyes) on CRC #6; format: cell-based; conditions: CRC #6 model
Text: (§2) The plates were scanned using the Celigo imaging cytometer and its software. We collected the brightfield images on the day (day 0) of the drug treatment and on the day right before performing the CellTiter-Glo (CTG) assay. Upon inserting the plate, images were set to be acquired on brightfield, green, and red fluorescence channels. The brightfield channel was used to focus the device and ensure the MOS boundaries were crisp. The green (live cell) fluorescence channel exposure time was then adjusted to ensure pixel intensity was below 200 across the control triplicate wells to avoid overexposure. This process was repeated for the red (dead cell) fluorescence channel in the positive control, killing condition triplicate wells. After scanning the plate, the stitched images of each well were exported in tiff format for the downstream imaging analysis.
(§3) We performed the live and dead cell staining on the same day prior to the CTG assay. For 96 well plates, a working dye solution of 20 μM Ethidium Homodimer-2 (Thermo Fisher, Cat. No. E3599) and 5 μM Calcein AM (Thermo Fisher, catalog No. C3100MP) was prepared by adding 1 mM Calcein AM, 1 mM Ethidium Homodimer-2, and CRC media in a 1:8:191 ratio. For 384-well plates, the working dye solution of 10 μM Ethidium Homodimer-2 and 2.5 μM Calcein AM was prepared by adding 1 mM Calcein AM, 1 mM Ethidium Homodimer-2, and colorectal cancer (CRC) media in a 1:8:391 ratio. After the solution was prepared, 11 μL and 10 μL of dye solution were added to each well on the 96-well and 384-wells plates, respectively, to yield a final well concentration of 2 μM Ethidium Homodimer-2 and 0.5 μM Calcein AM. The plates were then incubated for 45 min at 37° C.
(§4) Therefore, in studies involving the ratio of live-cell stain to dead-cell stain, we increased the predicted object mask to capture all the dead-stain fluorescence signal. The size increase was performed using one iteration of the dilate algorithm in OpenCV with a kernel size of 10×10. Any other MOSs detected by the machine learning model that overlap with this expanded region were removed before the integrated fluorescence was computed.
For the live and dead cell dyes-based imaging assay, the integrated live cell dye (Calcein AM) and dead cell dye (Eth) signals for each segmented object were determined. […]
(§5) To further increase the resolution and power of MOS drug assay pipeline, we developed an orthogonal approach by spiking a combination of live-cell (Calcein AM, CAM) and dead-cell (Ethidium Homodimer II, EtH) dyes (FIG. 5A; scale bar of 200 μm) into the drug assay plates prior to performing the CTG assay. We were able to quantitatively measure the integrated intensities of the CAM and EtH dyes in addition to MOS sizes.

[4] = test system: CRC #5; conditions: CRC #5 model; for sizes of CRC #5 MOS: FIG. 5A top panel; for drug response curve by median CAM/EtH dye ratios as compared to CTG based assay: FIG. 5C; for cytostatic vs. cytotoxic drug effect: from size, CAM/EtH ratio and CTG
Text: as §2, §3, §4
For the live and dead cell dyes-based imaging assay, the integrated live cell dye (Calcein AM) and dead cell dye (Eth) signals for each segmented object were determined. To assess drug response at individual MOS level, the integrated intensities, or the ratios of Calcein AM/EtH, were shown on the scatter plot or histogram. The correlation of dose-dependent drug response with the median ratios of the integrated live/dead cell dye intensities from each well were computed and plotted.
as §5

Structure (SMILES): CC(=O)O[C@@]12CO[C@@H]1C[C@H](O)[C@@]1(C)C(=O)[C@H](O)C3=C(C)[C@@H](OC(=O)[C@H](O)[C@@H](NC(=O)OC(C)(C)C)c4ccccc4)C[C@@](O)([C@@H](OC(=O)c4ccccc4)[C@H]21)C3(C)C [Docetaxel]
- bulk CTG readouts (raw CTG or adjusted CTG) drug response curves [1]: not able to provide any meaningful dose-dependent drug response curves
- drug response by median values of live/dead cell ratios [2]: clear dose-dependent drug response

Structure (SMILES): C#Cc1cccc(Nc2ncnc3cc(OCCOC)c(OCCOC)cc23)c1 [Erlotinib]
- sensitivity of the model to the drug [3]: resistant to EGFR inhibition
- sizes of CRC #6 MOS [3]: no obvious decrease
- sizes of CRC #5 MOS [4]: decreased
- drug response curve by median CAM/EtH dye ratios as compared to CTG based assay [4]: divergence between CTG plot and CAM/EtH ratio plot
- cytostatic vs. cytotoxic drug effect [4]: cytostatic effect; also recorded: cytostatic but not the cytotoxic effect

Structure (SMILES): Nc1ccn([C@@H]2O[C@H](CO)[C@@H](O)C2(F)F)c(=O)n1 [Gemcitabine]
- bulk CTG readouts (raw CTG or adjusted CTG) drug response curves [1]: not able to provide any meaningful dose-dependent drug response curves
- drug response by median values of live/dead cell ratios [2]: less sensitive response

Structure (SMILES): CCc1c2c(nc3ccc(O)cc13)-c1cc3c(c(=O)n1C2)COC(=O)[C@]3(O)CC [SN38]
- drug resistant clones identified ([3]; FIG. 5A and FIG. 5D): identified the drug resistant clones
- drug response curve by median CAM/EtH dye ratios as compared to CTG based assay ([3]; FIG. 5C): comparable dose-dependent drug responses
- sizes of CRC #5 MOS [4]: decreased
- drug response curve by median CAM/EtH dye ratios as compared to CTG based assay [4]: comparable dose-dependent drug responses
- cytostatic vs. cytotoxic drug effect [4]: cytotoxic effect
- ratios of CAM/EtH dye integrated intensities ([4]; live-cell Calcein AM / dead-cell Ethidium Homodimer II): only decreased in the wells treated with SN38
